In ChEMBL document CHEMBL1154097, “Novel 3,3'-diindolylmethane derivatives: synthesis and cytotoxicity, structural characterization in solid state” (Eur J Med Chem, 2009):
The source made the active and inactive calls. The rule behind the calls is not given here.

Legend:
[1] = tested on: IGROV-1; assay: Cytotoxicity against human IGROV1 cells; assay type: functional
[2] = tested on: UO-31; assay: Cytotoxicity against human UO31 cells; assay type: functional
[3] = tested on: Malme-3M; assay: Cytotoxicity against human MALME-3M cells at 10 uM; assay type: functional, cell-based
[4] = tested on: SK-MEL-2; assay: Cytotoxicity against human SK-MEL-2 cells; assay type: functional
[5] = tested on: PC-3; assay: Cytotoxicity against human PC3 cells; assay type: functional

Row | Compound | Activity [1] [%] | Activity [2] [%] | Activity [3] | Activity [4] [%] | Activity [5] [%]
1 | COc1ccc2[nH]cc(C(c3cc(F)cc(F)c3)c3c[nH]c4ccc(OC)cc34)c2c1 | -7.1 | 43.23 | Active | 62.49 | 50.16
2 | Fc1cc(F)cc(C(c2c[nH]c3ccccc23)c2c[nH]c3ccccc23)c1 | -6.52 | 52.86 | Active | 58.84 | 67.07
